Measured values taken from patent US9457037B2, “Combination composition, comprising as active ingredients L-carnitine or propionyl L-carnitine, for the prevention or treatment of chronic venous insufficiency” (SIGMA-TAU INDUSTRIE FARMACEUTICHE RIUNITE S.P.A., priority 2010, dated 2016).

Tests used:
[1] = test system: recto-anus swelling induced by croton oil; assay: Croton oil-induced hemorrhoid model in rats (swelling of the recto-anus, RAC); format: in vivo, rat; conditions: with croton oil (3%) induction, 24 h after induction; oral once per day for five days; 20 mg/kg carnitines, 30 mg/kg flavonoids; male SD rats, n = 5
Experimental: Male SD rats (6 weeks old, approximately 140 g) were purchased from Harlan Sprague Dawley and allowed to acclimate for 1 week. The rats were maintained in a pathogen-free facility in accordance with the National Research Council of Laboratory Animal care and use guidelines. Each experiment was preformed with age-matched rats 7-8 weeks old. The croton oil-induced hemorrhoid model in rats was performed according to the method published by Nishiki (Nishiki et al. (1988) Folia Pharmacology Japan 92:215-225; Nishiki et al. (1988) Folia Pharmacol. Japan 92:227-240). Briefly, a cotton swab with a diameter of 4 mm soaked with 0.16 mL of inducer (deionized water:pyridine:ethyl ether:6% croton oil/ethyl ether (1:4:5:10) was applied to the rat's anus for 12 seconds. The final concentration of croton oil was 3%. The edema developed linearly until 7-8 hours after application and the severity of the edema was sustained for more than 24 hours. Twenty-four hours later, recto-anus tissue (approx. 10 mm long) was isolated after the rats were euthanized. The weights of rat body and recto-anus were measured. The recto-anus coefficient (RAC) was calculated using the formula: weight of recto-anus (mg)/body weight (g). […]
Twenty-four hours after hemorrhoid induction with croton oil the RAC of rats was determined.

[2] = test system: isolated aorta from spontaneously hypertensive rats; assay: Relaxant effect on aortic rings precontracted by phenylephrine; design: species or system rat; conditions: 100 micro-molar each component, final concentration in organ chamber; rings precontracted by phenylephrine (1 micromolar); n=8
Experimental: The objective of this study was to investigate the vasoarelaxation effects of the compositions of the invention using isolated aorta from spontaneously hypertensive rats. The compounds tested were used at a concentration expressed as final concentration in the organ chamber. Male spontaneously hypertensive rats (SHR) 10-12 weeks old, weighing 250-300 g, were housed at 24±2° C. with 60±20% relative humidity, on a 12-h light-dark cycle. Rats were given free access to a diet of standard food and water. All experiments were performed according to the guidelines for the ethical treatment of animals of the European Union. The rats were killed by cervical dislocation and the aortae were rapidly dissected. […] Aortic rings were mounted under a basal tension of 2 g in 20 mL organ baths containing PSS and attached to an isometric transducer (Harvard UF-1); the signal was recorded by a Powerlab data acquisition system (AD-Instruments). […] The relaxant effect of compounds tested was assessed by adding the compound to aortic rings precontracted by phenylephrine (1 micromolar). […] All the results were expressed as a percentage of the maximal contraction of phenylephrine-induced responses. Results are expressed as percentages from the initial precontraction level. The significance was calculated on the actual contraction values means±SE (n=8 aorta preparations per group). […]

Row | Compound | RAC (recto-anus coefficient: weight of recto-anus (mg)/body weight (g)) [1] | % RELAXATION [2] [%]
1 | COc1ccc([C@@H]2CC(=O)c3c(O)cc(O[C@@H]4O[C@H](CO[C@@H]5O[C@@H](C)[C@H](O)[C@@H](O)[C@H]5O)[C@@H](O)[C@H](O)[C@H]4O)cc3O2)cc1O [Hesperidine, hesperidine] | 2.07 | 9
2 | CCC(=O)O[C@H](CC(=O)[O-])C[N+](C)(C)C [Propionyl L-carnitine, propionyl L-carnitine] | 1.96 | 28
